Assay results from patent publication US6703405B2, “Substituted 4-phenyltetrahydroisoquinolinium salts, process for their preparation, their use as a medicament, and medicament containing them” (Aventis Pharma Deutschland GmbH, priority 2001, dated 2004).
Where a name gives a salt, the structure may show the parent alone.

Target: T1, rNHE3 (Rattus norvegicus, UniProt P26433)
T1 construct: expressed in transfected cells
Experiment: recovery of intracellular pH (pHi) after acidification, BCECF fluorescence
Type: cell-based
Settings: pH recovery recorded for three minutes with NHE3; bicarbonate-free conditions
Procedure: In this test, the recovery in the intracellular pH (pHi) after an acidification is ascertained, which is initiated if the NHE is capable of functioning, even under bicarbonate-free conditions. For this purpose, the pHi was determined using the pH-sensitive fluorescent dye BCECF (Calbiochem, the precursor BCECF-AM is employed). The cells were initially loaded with BCECF. The BCECF fluorescence was determined in a “Ratio Fluorescence Spectrometer” (Photon Technology International, South Brunswick, N.J., USA) at excitation wavelengths of 505 and 440 nm and an emission wavelength of 535 nm and converted into the pHi using calibration curves. The cells were incubated in NH4Cl buffer (pH 7.4) (NH4Cl buffer: 115 mM NaCl, 20 mM NH4Cl, 5 mM KCl, 1 mM CaCl2, 1 mM MgSO4, 20 mM Hepes, 5 mM glucose, 1 mg/ml BSA; a pH of 7.4 was adjusted with 1 M NaOH) even during the BCECF loading. The intracellular acidification was induced by adding 975 μl of an NH4Cl-free buffer (see below) to 25 μl aliquots of the cells incubated in NH4Cl buffer. The subsequent rate of pH recovery was recorded for two minutes with NHE1, five minutes with NHE2 and three minutes with NHE3. To calculate the inhibitory potency of the tested substances, the cells were initially investigated in buffers with which a complete or absolutely no pH recovery took place. For complete pH recovery (100%), the cells were incubated in Na^+-containing buffer (133.8 mM NaCl, 4.7 mM KCl, 1.25 mM CaCl2, 1.25 mM MgCl2, 0.97 mM Na2HPO4, 0.23 mM NaH2PO4, 5 mM Hepes, 5 mM glucose, a pH of 7.0 is adjusted with 1 M NaOH). To determine the 0% value, the cells were incubated in an Na^+-free buffer (133.8 mM choline chloride, 4.7 mM KCl, 1.25 mM CaCl2, 1.25 mM MgCl2, 0.97 mM K2HPO4, 0.23 mM KH2PO4, 5 mM Hepes, 5 mM glucose, a pH of 7.0 is adjusted with 1 M NaOH). The substances to be tested were made up in the Na^+-containing buffer. The recovery of the intracellular pH at each test concentration of a substance was expressed as a percentage of the maximum recovery. The IC50 value for the particular substance for the individual NHE subtypes was calculated from the pH recovery percentages using the Sigma-Plot program.

T1 sequence (P26433 29-831): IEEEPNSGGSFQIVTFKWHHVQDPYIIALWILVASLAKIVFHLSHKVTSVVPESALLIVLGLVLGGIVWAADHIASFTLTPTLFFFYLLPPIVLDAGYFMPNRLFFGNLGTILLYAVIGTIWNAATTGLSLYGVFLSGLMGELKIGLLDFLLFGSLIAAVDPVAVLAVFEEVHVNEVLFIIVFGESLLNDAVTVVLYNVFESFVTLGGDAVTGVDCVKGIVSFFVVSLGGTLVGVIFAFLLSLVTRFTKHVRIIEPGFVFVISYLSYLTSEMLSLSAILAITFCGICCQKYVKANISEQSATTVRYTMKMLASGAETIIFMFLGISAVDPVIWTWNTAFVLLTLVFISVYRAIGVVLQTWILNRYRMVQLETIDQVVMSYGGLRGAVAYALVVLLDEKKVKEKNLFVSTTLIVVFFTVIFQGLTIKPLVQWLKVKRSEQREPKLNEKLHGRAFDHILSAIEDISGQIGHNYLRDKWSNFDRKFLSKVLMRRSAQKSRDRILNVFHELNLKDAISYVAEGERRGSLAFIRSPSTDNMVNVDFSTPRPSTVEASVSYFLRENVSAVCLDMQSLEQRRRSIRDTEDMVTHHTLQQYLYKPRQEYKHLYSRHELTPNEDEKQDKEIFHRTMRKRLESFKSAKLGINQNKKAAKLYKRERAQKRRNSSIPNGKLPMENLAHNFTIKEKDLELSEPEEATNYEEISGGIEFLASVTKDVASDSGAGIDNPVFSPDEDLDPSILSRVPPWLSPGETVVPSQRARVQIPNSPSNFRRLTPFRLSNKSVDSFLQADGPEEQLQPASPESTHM

CC(=O)Nc1ccc(C2C[N+](C)(C)Cc3c(Cl)cc(Cl)cc32)cc1 (single isomer, unassigned; (+)) [Example 3c, (+)-4-(4-Acetylaminophenyl)-6,8-dichloro-2,2-dimethyl-1,2,3,4-tetrahydroisoquinolinium chloride]
IC50: 0.43 µM

C[N+]1(C)Cc2c(Cl)cc(Cl)cc2C(c2ccccc2)C1 (centres unmarked) [Example 1, 6,8-Dichloro-2,2-dimethyl-4-phenyl-1,2,3,4-tetrahydroisoquinolinium, trifluoroacetate]
IC50: 0.23 µM

C[N+]1(C)Cc2c(Cl)cc(Cl)cc2C(c2ccc(S(N)(=O)=O)cc2)C1 (centres unmarked) [Example 2, 6,8-Dichloro-2,2-dimethyl-4-(4-sulfamoylphenyl)-1,2,3,4-tetrahydroisoquinolinium, Trifluoroacetate]
IC50: 0.9 µM

CC(=O)Nc1ccc(C2C[N+](C)(C)Cc3c(Cl)cc(Cl)cc32)cc1 (centres unmarked) [Example 3a, 4-(4-Acetylaminophenyl)-6,8-dichloro-2,2-dimethyl-1,2,3,4-tetrahydroisoquinolinium iodide]
IC50: 0.67 µM

C[N+]1(C)Cc2c(Cl)cc(Cl)cc2C(c2ccc(N)cc2)C1 (centres unmarked) [Example 4, 4-(4-Aminophenyl)-6,8-dichloro-2,2-dimethyl-1,2,3,4-tetrahydroisoquinolinium chloride, hydrochloride]
IC50: 0.03 µM
